Assays:
[1] = Stability in D6-DMSO, 3 days dark under air versus fluorescent light (1H NMR); format: physicochemical
Text: FIG. 6 ^1H NMR (500 MHz) spectrum (d 5.40-7.80) of ATRA in D6-DMSO in a glass NMR tube after 3 days in the dark under air (top), versus 3 days exposure to fluorescent light (bottom).
FIG. 7 ^1H NMR (500 MHz) spectrum (d 7.20-8.10) of EC23 (10a(i) (R′═H)) in D6-DMSO in a glass NMR tube after 3 days in the dark under air (top), versus 3 days exposure to fluorescent light (bottom).
In order to study the relative stability of certain synthetic retinoids versus the natural systems, solutions of each were exposed to different environmental conditions and then studied by NMR.

[2] = tested on: human pluripotent TERA2.cl.SP12 embryonal carcinoma stem cells; test: Flow cytometry of cell surface antigen expression on human pluripotent stem cells; format: cell-based; conditions: 14 day test period; comparable to non-isomerised ATRA
Description: FIG. 8 Flow cytometric analysis of cell surface antigen expression for markers of stem cells (ssea-3, tra-1-60) and differentiated derivatives (vinis-53, a2b5) when cultures of human pluripotent embryonal carcinoma stem cells (TERA2.SP12) exposed to either 10 μM ATRA or 10 μM EC23 (10a(i) (R′═H)).
FIG. 9 Flow cytometric analysis of cell surface antigen expression on human pluripotent TERA2.cl.SP12 embryonal carcinoma stem cells (undiff) and their differentiated derivatives after 7 days exposure to either ATRA; 3Me-CEBX (12); 3Me-EC19 (10b(ii) R′═H); 3Me-EC23 (10b(i) (R′═H)); 4Me-TTN (6b(i)(R′═H)); all used at 1 μM. DMSO was used as a vehicle control.
(§1) The biological activity of compounds 6, 10, 11, 12 and 13 were determined by exposing these molecules at various concentrations to different mammalian stem cell systems, namely (1) human pluripotent stem cells; and (2) rat adult neuroprogenitor cells.
Tissue development by human pluripotent stem cells closely resembles that which occurs during normal embryogenesis in utero and this cell system is a proven and accepted model of cell differentiation (Przyborski et al, Stem Cells Dev., 2004, 13:400-408).
The expression of cell surface antigens that are known to change as these stem cells commit to differentiate, was assessed by flow cytometry.
Flow cytometry was also used to assay for the effect(s) of compounds 6, 10 and (FIGS. 8 and 9).

[3] = tested on: human pluripotent stem cells; test: Differentiation of human pluripotent stem cells, morphology and immunocytochemistry / immunofluorescent microscopy; format: cell-based; conditions: for formation of neurons: confirmed by immunocytochemistry
Description: as §1
Tissue development by human pluripotent stem cells closely resembles that which occurs during normal embryogenesis in utero and this cell system is a proven and accepted model of cell differentiation (Przyborski et al, Stem Cells Dev., 2004, 13:400-408). […]

[4] = tested on: neuroprogenitor cells derived from the adult rat hippocampus; test: Differentiation of adult neuroprogenitor cells; format: cell-based; conditions: adult rat hippocampal neuroprogenitor cells; β-tubulin-III staining
Description: as §1
The biological activity of the synthetic retinoid EC23 (10a(i)) was also evaluated by exposing it to neuroprogenitor cells derived from the adult rat hippocampus. […] Immunocytochemical staining for the marker β-tubulin-III was used to confirm neuronal identity (data not shown).

TERA2.cl.SP12 cells = test: Proliferation and cytotoxicity in TERA2.cl.SP12 cultures; format: cell-based, human
[5] = Temperature sensitivity of retinoic acids at 37 °C (HNMR); format: physicochemical; conditions: 37° C. water bath, HNMR peak intensities
Description: (§2) In order to test the sensitivity of the natural retinoids, 10 mM samples in either DMSO or deuterochloroform were exposed to either 37° C., laboratory light (approximately 500 lux), white light (approximately 1250 lux) or UV light. Upon isomerisation HNMR spectra of samples were taken and compared to HNMR spectra of pure samples. The % peak intensities from the HNMR spectra were used to quantify levels of the different retinoic acids and any other compounds that may be present.
Temperature sensitivity was tested by placing solutions of retinoic acids in a 37° C. water bath for varying time lengths. After 1 hour at 37° C. approximate levels of the initial retinoic acid were 85% for a 13CRA sample and 100% for an ATRA sample. This decreased to 73% for a 13CRA sample and 86% for an ATRA sample after 24 hours.

[6] = Stability at room temperature for 1 week (HNMR); format: physicochemical
Description: as §2
Samples of ATRA and 13CRA, were left at room temperature for 1 week. The degraded solution of 13CRA contained around 78% 13CRA. […] All of the above experiments highlight retinoic acids inherent instability, not only in light, but also at 37° C. and even at room temperature.

[7] = Photoisomerisation under laboratory light (HNMR); format: physicochemical; conditions: laboratory light (approx. 500 lux), 1 hour and 24 hours
Description: as §2
(§3) The sensitivity of retinoic acids to light was tested by placing samples of ATRA, 9CRA and 13CRA in one of three lighting conditions for varying lengths of time. Samples were exposed to either normal laboratory light conditions, white light or UV light. HNMR spectra were then compared to those of pure samples.
The relative ratios of the natural retinoic acid isomers found in samples of ATRA and 13CRA isomerised in lab light for 1 hour and 24 hours can be seen in FIGS. 1 and 2. The new peaks in HNMR spectra increased in size, and so levels of isomerisation products increased over 24 hours but not to any great extent.
Samples of synthetic retinoids 12(ii), 12(i) and 13 were exposed to 1 hour of laboratory light, 1 hour of white light and 1 hour of UV light. HNMR spectra from samples exposed to lab light and white light were identical to those of pure compounds. […]

[8] = Photoisomerisation under UV light (HNMR); format: physicochemical; conditions: over 12 hours
Description: as §2, §3
FIGS. 4 and 5 show the relative ratios of the natural retinoic acids found in samples of ATRA and 13CRA isomerised in UV light for 1 hour and 12 hours.
Samples of synthetic retinoids 12(ii), 12(i) and 13 were exposed to 1 hour of laboratory light, 1 hour of white light and 1 hour of UV light. HNMR spectra from samples exposed to lab light and white light were identical to those of pure compounds. […] UV light is emitted at a frequency likely to excite the conjugated double bond region of these synthetic retinoids, resulting in the slight degradation observed. […]

[9] = Photoisomerisation under white light (HNMR); format: physicochemical
Description: as §2, §3
Samples of synthetic retinoids 12(ii), 12(i) and 13 were exposed to 1 hour of laboratory light, 1 hour of white light and 1 hour of UV light. HNMR spectra from samples exposed to lab light and white light were identical to those of pure compounds. […] UV light is emitted at a frequency likely to excite the conjugated double bond region of these synthetic retinoids, resulting in the slight degradation observed. 12(ii) and 12(i) were stable under laboratory light and white light. 13 was stable when exposed to all forms of light.

[10] = ATRA in ethanol, white light, 30 minutes; cited from earlier work
stem cells = test: Modulation of cell differentiation (summary statement); format: cell-based; conditions: conditions not given
Description: (§4) The application of this technology to systems both with and without a methyl group (e.g. in 6a versus 6b), is important because it allows control of relative rotational orientation of the aryl and vinyl groups which has important implications for the control of conformation as a design principle for developing receptor-selective retinoid analogues.
as §1

[11] = Stability (summary statement); format: physicochemical; conditions: conditions not given
Text: as §4

[12] = 10 μM, 21 days, immunofluorescent microscopy
[13] = 1 hour, 10 mM in DMSO or deuterochloroform
[14] = 3 days exposure to fluorescent light, DMSO, NMR

CC1(C)CCC(C)(C)c2cc(C#Cc3ccc(C(=O)O)cc3)ccc21 [10a(i), 4-(5,5,8,8-Tetramethyl-5,6,7,8-tetrahydro-naphthalen-2-ylethynyl)benzoic acid]
stability by NMR ([1]; 3 days, dark under air and fluorescent light, DMSO (same conditions as ATRA)): completely stable | expression of differentiation antigens A2B5 and VINIS-53 [2]: marked increases in expression | expression of stem cell markers TRA-1-60 and SSEA-3 [2]: suppression | epithelial plaques (cytokeratin-8) [3, 12]: very few, if any, epithelial plaques | formation of neurons / neuronal differentiation [3, 12]: consisting primarily of cells undergoing neuronal differentiation | nestin expression [3, 12]: strong expression for nestin | behaviour compared with natural ATRA ([3]; human pluripotent stem cells): essentially identical behaviour to natural ATRA | formation of neurons ([3]; morphology): induced the formation of morphologically identifiable neurons | differentiation into neurons [4]: differentiate into well-defined neurons

CC1(C)CCC(C)(C)c2cc(C#Cc3cccc(C(=O)O)c3)ccc21 [10a(ii)]
cells immuno-positive for Tuj-1 and NF200 [3, 12]: only a few cells immuno-positive | epithelial plaques (cytokeratin-8) [3, 12]: large numbers of cytokertin-8 positive epithelial plaques | formation of neurons / neuronal differentiation [3, 12]: formation of very few neurons | nestin expression [3, 12]: nestin staining reduced | formation of epithelial cells ([3]; morphology): formation of epithelial cells | formation of neurons ([3]; morphology): Neurons were not identified

CC1(C)CCC(C)(C)c2cc(C#Cc3cccc(C(=O)NO)c3)ccc21 [11a(ii), 3-(5,5,8,8-Tetramethyl-5,6,7,8-tetrahydronaphthalen-2-ylethynyl)benzohydroxamic acid]
cytotoxicity: time to kill the cells (TERA2.cl.SP12 cells; TERA2.cl.SP12 cells, described as potent cytotoxicity): ≤ 4 days | effect on proliferation of the cultures (TERA2.cl.SP12 cells; cultures grown in its presence): halted proliferation almost instantly

CC1=C(/C=C/C(C)=C/C=C/C(C)=C/C(=O)O)C(C)(C)CCC1 [ATRA, All-trans-retinoic acid]
approximate level of the initial retinoic acid [5, 13]: ~100% | approximate level of the initial retinoic acid ([5]; 24 hours): ~86% | content of the initial retinoic acid in the solution [6]: 94% | relative stability in laboratory light [7]: marginally more stable than 13CRA | degradation in UV light [8]: rapidly degraded | level of ATRA ([9]; white light (approx. 1250 lux), 1 hour): 76% | level of ATRA ([9]; white light, 6 hours): 43% | level of ATRA ([9]; white light, 24 hours): 21% | amount remaining [1, 14]: 37% | isomerisation and degradation [1, 14]: 63% | stability by NMR ([1]; 3 days in the dark in air in DMSO): reasonably stable | epithelial plaques (cytokeratin-8) [3, 12]: numerous epithelial plaques | formation of neurons / neuronal differentiation [3, 12]: induced the formation of neurons | differentiation into neurons [4]: primarily form neurons | relative concentration of 9, 13-dicis RA in the isomerised ATRA sample [10]: 5% | relative concentration of 9CRA in the isomerised ATRA sample [10]: 10% | relative concentration of 11CRA in the isomerised ATRA sample [10]: 10% | relative concentration of 13CRA in the isomerised ATRA sample [10]: 30% | relative concentration of ATRA in the isomerised ATRA sample [10]: 25% | relative concentration of an unidentified compound in the isomerised ATRA sample [10]: 20%

COC(=O)c1cccc(C=C(C)c2ccc3c(c2)C(C)(C)CCC3(C)C)c1 [Compound 6aii, 3-[2-(5,5,8,8-Tetramethyl-5,6,7,8-tetrahydronaphthalen-2-yl)-propenyl]-benzoic acid methyl ester]
efficacy in modulating cell differentiation (stem cells): efficacious in modulating cell differentiation | stability [11]: particularly stable

CC(=Cc1ccc(C(=O)O)cc1)c1cc2c(cc1C)C(C)(C)CCC2(C)C [Compound 6bi, 4-[2-(3,5,5,8,8-Pentamethyl-5,6,7,8-tetrahydro-naphthalen-2-yl)propenyl]benzoic acid]
efficacy in modulating cell differentiation (stem cells): efficacious in modulating cell differentiation | stability [11]: particularly stable

CC1=C(/C=C/C(C)=C/C=C/C(C)=C\C(=O)O)C(C)(C)CCC1 [Compound 13CRA, 13-cis-retinoic acid]
approximate level of the initial retinoic acid [5, 13]: ~85% | approximate level of the initial retinoic acid ([5]; 24 hours): ~73% | content of the initial retinoic acid in the solution [6]: around 78% | degradation in UV light [8]: rapidly degraded
